{
  "source": "patent US7767670B2",
  "about": "“Substituted 3-carboxamido isoxazoles as kinase modulators” (Ambit Biosciences Corporation, priority 2003, dated 2010)",
  "target": "T1, MKNK2 (Homo sapiens, UniProt Q9HBH9)",
  "T1 construct": "made in house; host or cells: T7 bacteriophage display",
  "T1 sequence (Q9HBH9 whole entry)": "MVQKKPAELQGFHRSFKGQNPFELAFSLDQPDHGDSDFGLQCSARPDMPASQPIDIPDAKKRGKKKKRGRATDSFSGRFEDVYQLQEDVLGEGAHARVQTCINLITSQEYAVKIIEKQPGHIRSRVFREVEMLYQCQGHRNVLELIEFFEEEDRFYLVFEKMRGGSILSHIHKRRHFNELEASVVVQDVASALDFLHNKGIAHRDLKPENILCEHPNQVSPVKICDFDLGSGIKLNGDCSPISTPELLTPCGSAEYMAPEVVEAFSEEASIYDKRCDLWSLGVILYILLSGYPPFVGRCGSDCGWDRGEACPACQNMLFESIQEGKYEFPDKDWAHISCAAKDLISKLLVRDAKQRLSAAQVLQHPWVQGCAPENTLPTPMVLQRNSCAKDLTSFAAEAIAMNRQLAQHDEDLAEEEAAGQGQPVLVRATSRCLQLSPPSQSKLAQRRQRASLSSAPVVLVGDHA",
  "test": "Binding constant (Kd) measurement, phage-displayed kinase competition binding assay",
  "details": "immobilized ATP site ligand competition, read-out: activity towards the target (Kd)",
  "source_text": "Binding Constant (Kd) Measurements for Small-Molecule-Kinase Interactions",
  "data": [
    {"smiles": "CC(C)(C)c1cc(NC(=O)Cc2ccc(NC(=O)c3ccc4cnccc4n3)cc2)no1", "note": "[Compound F2]", "values": [
      {"measurement": "Kd", "value": "< 50", "unit": "nM"}
    ]}
  ]
}
